Entries after “also recorded” stand apart in the source; their conditions may differ.
Assays:
MYXV = assay: microbe, parasite or virus in culture; format: cell-based, myxoma virus
A9F1 cells = format: cell-based
B16F10 cells = format: cell-based, murine; conditions: 24 hours

Structure (SMILES) | arginine concentration at which maximal viral replication occurs (MYXV) | EC50 (MYXV; Myxoma virus, 24 h, read-out: EC50 of exogenous arginine for production of new infectious MYXV progeny) [µM] | rescue of cytostasis by supplement (A9F1 cells) | rescue of MYXV replication by supplement (B16F10 cells)
N=C(N)NCCC[C@H](N)C(=O)O [arginine] | at least 100 μM | ~50 |  | 
NC(=O)NCCC[C@H](N)C(=O)O [citrulline, L-Citrulline] |  |  | could not be rescued | support myxoma virus replication; also recorded: could also rescue MYXV replication
